# Results from paper PMC4278362 (Bioorganic & medicinal chemistry, 2014).
# Like-named read-outs stand apart in the source and are kept apart here.
# Key:
# B. anthracis Sterne [1] = assay: microbe, parasite or virus in culture; assay type: cell-based, Bacillus anthracis; settings: for MIC: Bacillus anthracis, read-out: MIC B. anthracis Sterne
# B. anthracis Sterne [2] = settings: cited from earlier work
# B anthracis DHFR = B anthracis DHFR (Bacillus anthracis, UniProt Q81R22); assay: biochemical; settings: Ki ± SEM B anthracis DHFR
# B anthracis DHFR, sequence (Q81R22 1-162): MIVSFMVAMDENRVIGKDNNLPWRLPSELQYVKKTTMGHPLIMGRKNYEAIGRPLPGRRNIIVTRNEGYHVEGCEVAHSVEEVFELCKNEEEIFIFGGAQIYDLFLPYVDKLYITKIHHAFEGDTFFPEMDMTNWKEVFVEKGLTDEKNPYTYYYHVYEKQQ
smiles,measurement,setting,value
"CCOc1cc(Cc2cnc(N)nc2N)cc(/C=C/C(=O)N2N=Cc3ccccc3C2C=C(C)C)c1OCC (racemic) [Compound 19b, (±)-(E)-3-{5-[(2,4-Diamino-5-pyrimidinyl)methyl]-2,3-diethoxyphenyl}-1-(1-isobutenyl-2(1H)-phthalazinyl)-2-propen-1-one]",MIC,B. anthracis Sterne [1],1 to 2 µg/mL
"COc1cc(Cc2cnc(N)nc2N)cc(OC)c1OC [TMP, Trimethoprim]",MIC B. anthracis Sterne,B. anthracis Sterne [2],> 2048 µg/mL
"CCCC1c2ccccc2C=NN1C(=O)/C=C/c1cc(Cc2cnc(N)nc2N)cc(OCc2ccc(C(F)(F)F)cc2)c1OC (racemic) [Compound 34, (±)-(E)-3-{5-[(2,4-Diamino-5-pyrimidinyl)methyl]-2-methoxy-3-[(4-(trifluoromethyl)benzyl)oxy]phenyl}-1-(1-propyl-2(1H)-phthalazinyl)-2-propen-1-one]",Ki,B anthracis DHFR,> 2200 nM
"CCCC1c2ccccc2C=NN1C(=O)/C=C/c1cc(Cc2cnc(N)nc2N)cc(OC(=O)c2ccccc2)c1OC (racemic) [Compound 29, (±)-(E)-5-[(2,4-Diamino-5-pyrimidinyl)methyl]-2-methoxy-3-[3-oxo-3-(1-propyl-2(1H)-phthalazinyl)-1-propen-1-yl]phenyl benzoate]",MIC B. anthracis Sterne,B. anthracis Sterne [1],4 to 16 µg/mL
same,MIC,B. anthracis Sterne [1],2 to 16 µg/mL
